Measurements from patent US20250171463A1 (BIOGEN MA INC., priority 2022, published 2025).

Target: T1, EBP (Homo sapiens, UniProt Q15125)
T1 construct: HEK293T cells were utilized as the source of EBP enzyme; endogenous in cells; host or cells: HEK293T
Experiment: EBP Functional Assay (EBP immunoaffinity LC-MS assay)
Type: biochemical
Details: EBP enzyme from HEK293T cells; 30 min with inhibitor, then zymosterol-d5, 37° C., 4 h; percent conversion to dehydrolathosterol-d5 by LC-APCI MRM MS
Description: The EBP immunoaffinity (IA) LC-MS assay measures the potency of small molecule inhibitors of EBP by quantifying their concentration-dependent changes in the enzyme's substrate and product using liquid chromatography atmospheric pressure chemical ionization multiple reaction monitoring mass spectrometry (LC-APCI MRM MS). HEK293T cells were utilized as the source of EBP enzyme. The enzyme was incubated with the small molecule inhibitors at variable concentrations for 30 min. Deuterated form of EBP substrate, zymosterol-d5 (Avanti Polar Lipids, Cat #700068P-1 mg), was then added and the plate was incubated at 37° C. for 4 h. Finally, the sterol isomers were extracted and injected to LC-APCI MRM MS. MRM transition used for the quantification for both zymosterol and […] (substrate and product of EBP enzymatic reaction, respectively) is 372.3-203.2, CE 30 and DP 80 in positive ion mode. Percent conversion of the zymosterol-d5 to dehydrolathosterol-d5 was used to derive IC50 curves. Tasin-1 (1′-[(4-Methoxyphenyl)sulfonyl]-4-methyl-1,4′-bipiperidine, CAS 792927-06-1) was used as the reference small molecule inhibitor.
Percent conversion versus the compound concentration data were fit to the following 4-parameter logistic model to generate IC50 curves: […]

T1 sequence (Q15125 whole entry): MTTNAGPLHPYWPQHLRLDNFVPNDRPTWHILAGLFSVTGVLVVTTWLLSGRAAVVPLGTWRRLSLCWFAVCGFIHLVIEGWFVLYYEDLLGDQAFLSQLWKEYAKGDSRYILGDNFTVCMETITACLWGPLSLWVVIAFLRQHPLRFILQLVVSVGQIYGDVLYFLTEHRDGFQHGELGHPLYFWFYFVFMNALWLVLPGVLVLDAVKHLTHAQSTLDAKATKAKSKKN

SMILES | IC50 [nM]
Cc1nc(C(F)(F)F)ccc1S(=O)(=O)N1CC2(CN(C(C)C3COC3)C2)C1 (single isomer, unassigned) [Example 159] | < 100
Cc1nc(C(F)(F)F)ccc1S(=O)(=O)N1CC2(CN(CC3CCOC3)C2)C1 (single isomer, unassigned) [Example 161] | 250 to 4000
Cn1nc(C(F)(F)F)cc1S(=O)(=O)N1CC2(CN(CC3CCOC(C)(C)C3)C2)C1 (single isomer, unassigned) [Example 199] | 100 to 250
Cn1nc(C(F)(F)F)cc1S(=O)(=O)N1CC2(CN(CC3CCOC(C)(C)C3)C2)C1 (single isomer, unassigned) [Example 200] | 100 to 250
O=S(=O)(c1ccc(OC(F)F)cc1)N1CCOC2(CCN(C3CCOCC3)CC2)C1 [Example 5, 4-((4-(Difluoromethoxy)phenyl)sulfonyl)-9-(tetrahydro-2H-pyran-4-yl)-1-oxa-4,9-diazaspiro[5.5]undecane] | 100 to 250
COCCN1CCC2(CC1)CN(S(=O)(=O)c1ccc(OC(F)F)cc1)CCO2 [Example 7, 4-((4-(Difluoromethoxy)phenyl)sulfonyl)-9-(2-methoxyethyl)-1-oxa-4,9-diazaspiro[5.5]undecane] | 250 to 4000
CC(C)(O)CN1CCC2(CC1)CN(S(=O)(=O)c1ccc(OC(F)F)cc1)CCO2 [Example 10, 1-(4-((4-(Difluoromethoxy)phenyl)sulfonyl)-1-oxa-4,9-diazaspiro[5.5]undecan-9-yl)-2-methylpropan-2-ol] | 250 to 4000
COC(C)(C)CN1CCC2(CC1)CN(S(=O)(=O)c1ccc(OC(F)F)cc1)CCO2 [Example 11, 4-((4-(Difluoromethoxy)phenyl)sulfonyl)-9-(2-methoxy-2-methylpropyl)-1-oxa-4,9-diazaspiro[5.5]undecane] | 100 to 250
O=S(=O)(c1ccc(F)cc1F)N1CCOC2(CCN(C3CCOCC3)C2)C1 (centres unmarked) [Example 12, 9-((2,4-Difluorophenyl)sulfonyl)-2-(tetrahydro-2H-pyran-4-yl)-6-oxa-2,9-diazaspiro[4.5]decane] | 250 to 4000
COc1ncc(C)cc1S(=O)(=O)N1CCOC2(CCN(C3CCOCC3)C2)C1 (centres unmarked) [Example 16, 9-((2-Methoxy-5-methylpyridin-3-yl)sulfonyl)-2-(tetrahydro-2H-pyran-4-yl)-6-oxa-2,9-diazaspiro[4.5]decane] | 250 to 4000
O=S(=O)(c1ccc(OC(F)F)cc1)N1CCOC2(CCN(CC3COC3)C2)C1 (centres unmarked) [Example 17, 9-((4-(Difluoromethoxy)phenyl)sulfonyl)-2-(oxetan-3-ylmethyl)-6-oxa-2,9-diazaspiro[4.5]decane] | 250 to 4000
O=S(=O)(c1ccc(OC(F)F)cc1)N1CCOC2(CCN(CC3CCOCC3)CC2)C1 [Example 19, 4-((4-(Difluoromethoxy)phenyl)sulfonyl)-9-((tetrahydro-2H-pyran-4-yl)methyl)-1-oxa-4,9-diazaspiro[5.5]undecane] | 250 to 4000
CC1(CN2CCC3(CC2)CN(S(=O)(=O)c2ccc(OC(F)F)cc2)CCO3)COC1 [Example 20, 4-((4-(Difluoromethoxy)phenyl)sulfonyl)-9-((3-methyloxetan-3-yl)methyl)-1-oxa-4,9-diazaspiro[5.5]undecane] | 100 to 250
O=S(=O)(c1cnc(C2CC2)s1)N1CCOC2(CCN(C3CCOCC3)C2)C1 (centres unmarked) [Example 23, 9-((2-Cyclopropylthiazol-5-yl)sulfonyl)-2-(tetrahydro-2H-pyran-4-yl)-6-oxa-2,9-diazaspiro[4.5]decane] | 100 to 250
O=S(=O)(c1cnc(C2CC2)s1)N1CCOC2(CCN(C3CC4(COC4)C3)C2)C1 (centres unmarked) [Example 24, 9-((2-Cyclopropylthiazol-5-yl)sulfonyl)-2-(2-oxaspiro[3.3]heptan-6-yl)-6-oxa-2,9-diazaspiro[4.5]decane] | 100 to 250
O=S(=O)(c1cc(F)cc(F)c1)N1CCOC2(CCN(C3CC4(COC4)C3)C2)C1 (centres unmarked) [Example 28, 9-((3,5-Difluorophenyl)sulfonyl)-2-(2-oxaspiro[3.3]heptan-6-yl)-6-oxa-2,9-diazaspiro[4.5]decane] | 100 to 250
CC1(CN2CCC3(CC2)CN(S(=O)(=O)c2cc(F)cc(F)c2)CCO3)COC1 [Example 29, 4-((3,5-Difluorophenyl)sulfonyl)-9-((3-methyloxetan-3-yl)methyl)-1-oxa-4,9-diazaspiro[5.5]undecane] | 100 to 250
Cc1nc(C(F)(F)F)ccc1S(=O)(=O)N1CCC2(CC1)CN(C1CCOCC1)C2 [Example 33, 7-((2-Methyl-6-(trifluoromethyl)pyridin-3-yl)sulfonyl)-2-(tetrahydro-2H-pyran-4-yl)-2,7-diazaspiro[3.5]nonane] | < 100
Cc1ccc(S(=O)(=O)N2CCC3(CC2)CN(CC2(O)CCOCC2)C3)c(C)c1 [Example 34, 4-((7-((2,4-Dimethylphenyl)sulfonyl)-2,7-diazaspiro[3.5]nonan-2-yl)methyl)tetrahydro-2H-pyran-4-ol] | < 100

More lines, now with the values ahead:

IC50 [nM] | SMILES
100 to 250 | Cc1nc(C(F)(F)F)ccc1S(=O)(=O)N1CC2(CN(CC3CCOC3)C2)C1 (single isomer, unassigned) [Example 160]
250 to 4000 | O=S(=O)(c1ccc(OC(F)F)cc1)N1CCOC2(CN(C3CCOCC3)C2)C1 [Example 1, 8-((4-(Difluoromethoxy)phenyl)sulfonyl)-2-(tetrahydro-2H-pyran-4-yl)-5-oxa-2,8-diazaspiro[3.5]nonane]
< 100 | O=S(=O)(c1cc(F)cc(F)c1)N1CCOC2(CCN(C3CCOCC3)C2)C1 (centres unmarked) [Example 13, 9-((3,5-Difluorophenyl)sulfonyl)-2-(tetrahydro-2H-pyran-4-yl)-6-oxa-2,9-diazaspiro[4.5]decane]
250 to 4000 | O=S(=O)(c1ccc(OC(F)F)cc1)N1CCOC2(CCN(CC3CCOCC3)C2)C1 (centres unmarked) [Example 18, 9-((4-(Difluoromethoxy)phenyl)sulfonyl)-2-((tetrahydro-2H-pyran-4-yl)methyl)-6-oxa-2,9-diazaspiro[4.5]decane]
250 to 4000 | CC1(C)CC(N2CCC3(CC2)CN(S(=O)(=O)c2ccc(OC(F)F)cc2)CCO3)CCO1 (centres unmarked) [Example 21, 4-((4-(Difluoromethoxy)phenyl)sulfonyl)-9-(2,2-dimethyltetrahydro-2H-pyran-4-yl)-1-oxa-4,9-diazaspiro[5.5]undecane]
250 to 4000 | O=S(=O)(c1cnc(C2CC2)s1)N1CCOC2(CN(C3CCOCC3)C2)C1 [Example 22, 8-((2-Cyclopropylthiazol-5-yl)sulfonyl)-2-(tetrahydro-2H-pyran-4-yl)-5-oxa-2,8-diazaspiro[3.5]nonane]
100 to 250 | O=S(=O)(c1ccc(OC(F)F)cc1)N1CCC2(CC1)CN(C1CCOCC1)CCO2 [Example 30, 9-((4-(Difluoromethoxy)phenyl)sulfonyl)-4-(tetrahydro-2H-pyran-4-yl)-1-oxa-4,9-diazaspiro[5.5]undecane]
250 to 4000 | Cc1ccc(S(=O)(=O)N2CCC3(CC2)CN(C2CCOCC2)C3)c(C)c1 [Example 31, 7-((2,4-Dimethylphenyl)sulfonyl)-2-(tetrahydro-2H-pyran-4-yl)-2,7-diazaspiro[3.5]nonane]
250 to 4000 | O=S(=O)(c1ccc(OC(F)F)cc1)N1CCC2(CC1)CN(C1CCOCC1)C2 [Example 32, 7-((4-(Difluoromethoxy)phenyl)sulfonyl)-2-(tetrahydro-2H-pyran-4-yl)-2,7-diazaspiro[3.5]nonane]
< 100 | Cc1ccc(S(=O)(=O)N2CCC3(CC2)CN(CC2CCOCC2)C3)c(C)c1 [Example 35, 7-((2,4-Dimethylphenyl)sulfonyl)-2-((tetrahydro-2H-pyran-4-yl)methyl)-2,7-diazaspiro[3.5]nonane]
